Laboratory results published in patent US9440938B2, “Sulfonamide derivative having PGD2 receptor antagonistic activity” (SHIONOGI & CO., LTD., priority 2005, dated 2016).
Where two headings read alike, the source gives them in different places.

How the values were obtained:
[1] = target: T1, DP receptor (Homo sapiens, UniProt Q13258); assay: cAMP assay with washed platelet (DP inhibitory activity in vitro); assay type: cell-based; details: washed human platelets, 100 nM PGD2, cAMP by HTRF
T1 construct: endogenous in cells; host or cells: washed platelets from peripheral blood of a healthy volunteer
T1 sequence (Q13258 1-359): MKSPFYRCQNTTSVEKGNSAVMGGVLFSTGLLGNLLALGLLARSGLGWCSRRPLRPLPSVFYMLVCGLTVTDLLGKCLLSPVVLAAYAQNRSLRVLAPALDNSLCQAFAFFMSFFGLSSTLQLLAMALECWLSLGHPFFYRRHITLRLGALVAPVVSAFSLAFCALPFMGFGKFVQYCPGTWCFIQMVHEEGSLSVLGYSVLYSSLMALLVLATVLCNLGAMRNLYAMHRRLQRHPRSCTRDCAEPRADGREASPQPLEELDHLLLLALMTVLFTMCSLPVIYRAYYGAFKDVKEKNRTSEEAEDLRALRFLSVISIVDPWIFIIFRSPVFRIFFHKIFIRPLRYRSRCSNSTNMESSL
Protocol: 1) Preparation of Platelet and a Method of cAMP Assay
30 mL of peripheral blood was collected from a healthy volunteer using a syringe containing one ninth amount of 3.8% sodium citrate. After being centrifuged at 180 g for 10 minutes at room temperature, a supernatant was collected and used as Platelet Rich Plasma (PRP). The resulting PRP was washed with wash buffer and centrifuged three times (Washed Platelet: WP) and platelets were counted by a microcell counter. WP was added to a plate in amount of 1.5×10^8/assay and the plate was treated with 3-isobutyl-1-methylxanthin (IBMX; 0.5 mM) for 5 minutes. A reaction was initiated by adding 100 nM of PGD2 5 min after an addition of a test compound. The reaction was terminated with an addition of 1N hydrochloric acid after 2 minutes and the cells were destructed using 12% triton X-100. An amount of cAMP in the supernatant was assayed by Homogeneous Trangient Fluorescence (HTRF)

[2] = target: T1, DP receptor; assay: Receptor binding assay, [3H]-PGD2, platelet membrane; details: [3H]-PGD2, human platelet membrane
Protocol: 2) Receptor Binding Assay
A prepared WP was homogenated and a membrane fraction was collected with high-speed centrifugation. A compound of the present invention or a reference compound A (No. IC-73 in WO 2003/097598) was added to the plate and [^3H]-PGD2 was also added. A platelet membrane, a protein concentration is 2 mg/mL, was added and mixed in the plate, and placed on ice for 2 hours. The reaction solution was transferred to a low protein-adsorptive filter and washed with a wash solution eight times using a cell harvester. After the final washing, water was removed sufficiently, and scintillator was added. DP inhibitory activity was investigated by measuring [^3H] by using Micro Beta.

[3] = test system: OVA asthma model of rat; assay: Test using OVA asthma model of rat (airway hyperresponsiveness, infiltration of inflammatory cells, mucus-secretion); assay type: in vivo, Brown Norway (BN) Rats; details: po, 72 h
Protocol: Test Using OVA Asthma Model of Rat
Brown Norway (BN) Rats were sensitized by i.p. administration of 0.1 mg/mL of ovalbumin (OVA) and 1 mg of aluminum hydroxide gel. A solution of 1% OVA was aerosolized by ultrasonic nebulizer (NE-U17) and the rats were subjected to inhalation exposure of the aerosol for 30 minutes in an exposing chamber 12, 19, 26 and 33 days after the sensitization. One hour before the 4th exposure of the antigen, compounds of the present invention were administered in a dose of 10 mg/kg p.o. once a day for three days consecutively. In a control group, 0.5% of methyl cellulose was administered in place of the compound of the present invention.
Under pentobarbital anesthesia (80 mg/kg, i.p.), acetylcholine (3.9, 7.8, 15.6, 31.3, 62.5, 125, 250 and 500 μg/kg) was injected to jugular vein of the rats successively from a lower dose at intervals of 5 minutes three days after the fourth exposure to the antigen, and immediate contractile reaction of airways (an increase of insufflation pressure) was measured by a modified method of Konnzett & Ririssler. Inhibition rate of airway hyperresponsiveness against the control group was calculated based on area under the curve (AUC) obtained from concentration-response curve of acetylcholine.
After the measurement of increased hyperresponsive airway was completed, bronchoalveoli of the rats were washed with 5 mL of saline three times. Total cell number in the washings was counted by a hemacytometer under light microscope, and inhibition rates of infiltration of inflammatory cells against the control group were calculated. Further, mucin in the airway lavage fluid was measured by ELISA method using jacalin, a mucin-binding lectin, and the inhibition rates of mucus-secretion against the control group were calculated.

[4] = read-out: IC50 (50% DP-inhibitory concentration in the cAMP assay)

| SMILES | IC50 [1, 4] [nM] | Ki [2] [nM] | also measured |
| --- | --- | --- | --- |
| CC(C)Oc1ccc(S(=O)(=O)N2CCC(Oc3ccccc3/C=C/C(=O)O)CC2)cc1 [Compound I-7] | 2400 |  |  |
| COc1cccc(OC2CCN(S(=O)(=O)c3ccc(OC(C)C)cc3)CC2)c1/C=C/C(=O)O [Compound I-8] | 2100 |  |  |
| CC(C)Oc1ccc(S(=O)(=O)N2CCC(Oc3ccc(Cl)cc3CCC(=O)O)CC2)cc1 [Compound I-10] | 2700 | 30000 |  |
| CC(C)Oc1ccc(S(=O)(=O)N2CCC(Oc3ccccc3CCC(=O)O)CC2)cc1 [Compound I-11] | 3000 |  |  |
| COc1cccc(OC2CCN(S(=O)(=O)c3ccc(OC(C)C)cc3)CC2)c1CCC(=O)O [Compound I-12] | 4200 |  |  |
| CC(C)Oc1ccc(S(=O)(=O)N2CCC(Oc3ccc(F)cc3CCC(=O)O)CC2)cc1 [Compound I-18] | 1600 |  |  |
| CC(C)Oc1ccc(S(=O)(=O)N2CC=C(c3ccc(Cl)c(OCC(=O)O)c3)CC2)cc1 [Compound I-30] | 510 |  |  |
| CC(C)Oc1ccc(S(=O)(=O)N2CCC(c3ccc(Cl)c(OCC(=O)O)c3)CC2)cc1 [Compound I-31] | 160 | 3600 |  |
| Cc1ccc(N2CCN(S(=O)(=O)c3ccc(OC(C)C)cc3)CC2)cc1OCC(=O)O [II-8] | 4600 |  |  |
| CC(C)Oc1ccc(S(=O)(=O)N2CCN(c3ccc(Cl)c(OCC(=O)O)c3)CC2)cc1 [II-10] | 410 | 650 |  |
| CC(C)Oc1ccc(S(=O)(=O)N2CCN(c3cccc(OCC(=O)O)n3)CC2)cc1 [II-11] | 2300 |  |  |
| CC(C)Oc1ccc(S(=O)(=O)N2CCN(c3ccc(Cl)c(/C=C/C(=O)O)c3)CC2)cc1 [II-18] | 4900 |  |  |
| CC(C)Oc1ccc(S(=O)(=O)N2CCN(c3ccc(Cl)c(CC(=O)O)c3)CC2)cc1 [II-20] | 4300 |  |  |
| CC(C)Oc1ccc(S(=O)(=O)N2CCN(c3cc(F)cc(OCC(=O)O)c3)CC2)cc1 [II-25] | 670 | 1600 |  |
| CC(C)Oc1ccc(S(=O)(=O)N2CCN(c3ccc(NC(=O)c4ccccc4)c(OCC(=O)O)c3)CC2)cc1 [II-28] | 2500 | 3800 |  |
| CC(C)Oc1ccc(S(=O)(=O)N2CCN(c3ccc(Cl)c(OCC(=O)O)c3)CC2)cc1F [II-31] | 810 | 3700 |  |
| COCC#Cc1cc(OCC(=O)O)cc(N2CCN(S(=O)(=O)c3ccc(OC(C)C)cc3)CC2)c1 [II-37] | 1500 |  |  |
| Cc1cc(OCC(=O)O)cc(N2CCN(S(=O)(=O)c3ccc(OC(C)C)cc3)CC2)c1 [II-41] | 3500 |  |  |
| CC(C)Oc1ccc(S(=O)(=O)N2CCN(c3ccc(Cl)c(OCC(=O)O)c3)C(C)C2)cc1 (stereo not shown) [II-44] | 690 | 1600 |  |
| CC(C)Oc1ccc(S(=O)(=O)N2CCN(c3ccc(-c4nnco4)c(OCC(=O)O)c3)CC2)cc1 [II-46] | 790 | 870 |  |
| CC(C)Oc1ccc(S(=O)(=O)N2CCN(c3ccc(NC(=O)c4ccccn4)c(OCC(=O)O)c3)CC2)cc1 [II-47] | 3100 | 2200 |  |
| CC(C)Oc1ccc(S(=O)(=O)N2CCN(c3ccc(NC(=O)c4cccnc4)c(OCC(=O)O)c3)CC2)cc1 [II-48] | 4600 |  |  |
| CC(C)Oc1ccc(S(=O)(=O)N2CCN(c3cc(OCC(=O)O)cc(-c4cccs4)c3)CC2)cc1 [II-51] | 640 | 520 |  |
| CC(C)Oc1ccc(S(=O)(=O)N2CCN(c3ccc(-c4ccccc4)c(OCC(=O)O)c3)CC2)cc1 [II-53] | 2300 |  |  |
| CC(C)Oc1ccc(S(=O)(=O)N2CCN(c3cc(F)c(F)c(OCC(=O)O)c3)CC2)cn1 [II-55] | 3000 |  |  |

| SMILES | IC50 [1, 4] [nM] | Ki [2] [nM] | also measured |
| --- | --- | --- | --- |
| CC(C)Oc1ccc(S(=O)(=O)N2CCN(c3cc(OCC(=O)O)cc(-c4ccccc4)c3)CC2)cc1 [II-57] | 1200 |  |  |
| CC(C)Oc1ccc(S(=O)(=O)N2CCN(c3ccc(NC(=O)c4ccno4)c(OCC(=O)O)c3)CC2)cc1 [II-58] | 3500 |  |  |
| COC(=O)Nc1ccc(N2CCN(S(=O)(=O)c3ccc(OC(C)C)cc3)CC2)cc1OCC(=O)O [II-59] | 4300 |  |  |
| Cc1cc(C(=O)Nc2ccc(N3CCN(S(=O)(=O)c4ccc(OC(C)C)cc4)CC3)cc2OCC(=O)O)no1 [II-60] | 880 | 2600 |  |
| Cc1nnc(-c2ccc(N3CCN(S(=O)(=O)c4ccc(OC(C)C)cc4)CC3)cc2OCC(=O)O)o1 [II-61] | 2100 | 1400 |  |
| CC(C)Oc1ccc(S(=O)(=O)N2CCN(c3ccc(C(=O)Nc4ccccc4)c(OCC(=O)O)c3)CC2)cc1 [II-62] | 1100 | 4700 |  |
| CC(C)NC(=O)c1ccc(N2CCN(S(=O)(=O)c3ccc(OC(C)C)cc3)CC2)cc1OCC(=O)O [II-63] |  |  | inhibition in vivo at 10 mg/kg ([3]; BN rats, 10 mg/kg p.o. once a day for three days, mucin in airway lavage fluid by ELISA against control group, read-out: inhibition rate (%) mucus-secretion): 79%; inhibition in vivo at 10 mg/kg ([3]; BN rats, 10 mg/kg p.o. once a day for three days, total cell number in bronchoalveolar washings against control group, read-out: inhibition rate (%) infiltration of inflammatory cells): 59%; inhibition in vivo at 10 mg/kg ([3]; read-out: inhibition rate (%) airway hyperresponsiveness): 41% |
| CC(C)Oc1ccc(S(=O)(=O)N2CCN(c3ccc(-c4ccco4)c(OCC(=O)O)c3)CC2)cc1 [II-65] | 140 | 16000 |  |
| CC(C)OC(=O)Nc1ccc(N2CCN(S(=O)(=O)c3ccc(OC(C)C)cc3)CC2)cc1OCC(=O)O [II-67] | 1700 |  |  |
| CC(C)NC(=O)Nc1ccc(N2CCN(S(=O)(=O)c3ccc(OC(C)C)cc3)CC2)cc1OCC(=O)O [II-68] | 17000 |  |  |
| CC(C)Oc1ccc(S(=O)(=O)N2CCN(c3cc(OCC(=O)O)ccc3Cl)CC2)cc1 [II-69] | 1400 |  |  |
| CC(C)Oc1ccc(S(=O)(=O)N2CCN(c3ccc(OCc4ccccc4)c(OCC(=O)O)c3)CC2)cc1 [II-71] | 4100 |  |  |
| Cc1cnc(-c2ccc(N3CCN(S(=O)(=O)c4ccc(OC(C)C)cc4)CC3)cc2OCC(=O)O)o1 [II-73] | 1000 | 1100 |  |
| CC(C)Oc1ccc(S(=O)(=O)N2CCN(c3ccc(-c4ncco4)c(OCC(=O)O)c3)CC2)cc1 [II-74] | 520 | 240 |  |
| Cc1nnc(-c2ccc(N3CCN(S(=O)(=O)c4ccc(OC(C)C)cc4)CC3)cc2OCC(=O)O)s1 [II-75] | 580 | 580 |  |
| CC(C)Oc1ccc(S(=O)(=O)N2CCN(c3ccc(OCc4ccoc4)c(OCC(=O)O)c3)CC2)cc1 [II-77] | 3600 |  |  |
| CC(C)Oc1ccc(S(=O)(=O)N2CCN(c3ccc(Oc4ccccc4)c(OCC(=O)O)c3)CC2)cc1 [II-79] | 2300 |  |  |
| CC(C)Oc1ccc(S(=O)(=O)N2CCN(c3ccc(C(N)=O)c(OCC(=O)O)c3)CC2)cc1 [II-81] | 1800 | 2600 |  |
| CNC(=O)c1ccc(N2CCN(S(=O)(=O)c3ccc(OC(C)C)cc3)CC2)cc1OCC(=O)O [II-82] | 1100 | 5000 |  |
| CCCNC(=O)c1ccc(N2CCN(S(=O)(=O)c3ccc(OC(C)C)cc3)CC2)cc1OCC(=O)O [II-83] | 2000 | 20000 |  |
| CC(C)Oc1ccc(S(=O)(=O)N2CCN(c3ccc(-c4cnco4)c(OCC(=O)O)c3)CC2)cn1 [II-85] |  | 1700 | IC50 [1]: 510 nM |
| CC(C)Oc1ccc(S(=O)(=O)N2CCN(c3ccc(-c4nncs4)c(OCC(=O)O)c3)CC2)cc1 [II-88] | 230 | 1500 |  |
| CC(C)Oc1ccc(S(=O)(=O)N2CCN(c3ccc(Br)c(OCC(=O)O)n3)CC2)cc1 [II-90] | 590 |  |  |
| CC(=O)c1ccc(N2CCN(S(=O)(=O)c3ccc(OC(C)C)cc3)CC2)cc1OCC(=O)O [II-91] | 1300 |  |  |
